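GI50 marks 50% less growth. Definition used: TGI = concentration required for complete inhibition of growth.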
Experiments:
Test in all cases: inhibition of tumour cell growth, NCI panel, 384-well format
786-0 renal = tested on: 786-0 renal
A498 renal = tested on: A498 renal
A549 NSCLC = tested on: A549 NSCLC
ACHN renal = tested on: ACHN renal
BT-549 breast = tested on: BT-549 breast
CAKI-1 renal = tested on: CAKI-1 renal
CCRF-CEM leukemia = tested on: CCRF-CEM leukemia
COLO 205 colon = tested on: COLO 205 colon
DU-145 prostate = tested on: DU-145 prostate
EKVX NSCLC = tested on: EKVX NSCLC
HCC-2998 colon = tested on: HCC-2998 colon
HCT-15 colon = tested on: HCT-15 colon
HL-60(TB) leukemia = tested on: HL-60(TB) leukemia
HOP-62 NSCLC = tested on: HOP-62 NSCLC
HOP-92 NSCLC = tested on: HOP-92 NSCLC
HS 578T breast = tested on: HS 578T breast
HT29 colon = tested on: HT29 colon
IGROV1 ovarian = tested on: IGROV1 ovarian
K-562 leukemia = tested on: K-562 leukemia
KM12 colon = tested on: KM12 colon
LOX IMVI melanoma = tested on: LOX IMVI melanoma
M14 melanoma = tested on: M14 melanoma
MALME-3M melanoma = tested on: MALME-3M melanoma
MCF7 breast = tested on: MCF7 breast
MDA-MB-231 breast = tested on: MDA-MB-231 breast
MDA-MB-435 melanoma = tested on: MDA-MB-435 melanoma
MDA-MB-468 breast = tested on: MDA-MB-468 breast
MOLT-4 leukemia = tested on: MOLT-4 leukemia
NCI-H226 lung = tested on: NCI-H226 lung
NCI-H23 lung = tested on: NCI-H23 lung
NCI-H322M lung = tested on: NCI-H322M lung
NCI-H460 NSCLC = tested on: NCI-H460 NSCLC
NCI-H522 lung = tested on: NCI-H522 lung
NCI/ADR-RES ovarian = tested on: NCI/ADR-RES ovarian
OVCAR-3 ovarian = tested on: OVCAR-3 ovarian
OVCAR-4 ovarian = tested on: OVCAR-4 ovarian
OVCAR-5 ovarian = tested on: OVCAR-5 ovarian
OVCAR-8 ovarian = tested on: OVCAR-8 ovarian
PC-3 prostate = tested on: PC-3 prostate
RPMI-8226 leukemia = tested on: RPMI-8226 leukemia
RXF 393 renal = tested on: RXF 393 renal
SF-268 CNS = tested on: SF-268 CNS
SF-295 CNS = tested on: SF-295 CNS
SF-539 CNS = tested on: SF-539 CNS
SK-MEL-28 melanoma = tested on: SK-MEL-28 melanoma
SK-MEL-5 melanoma = tested on: SK-MEL-5 melanoma
SK-OV-3 ovarian = tested on: SK-OV-3 ovarian
SN12C renal = tested on: SN12C renal
SNB-19 CNS = tested on: SNB-19 CNS
SNB-75 CNS = tested on: SNB-75 CNS
SR leukemia = tested on: SR leukemia
SW-620 colon = tested on: SW-620 colon
T-47D breast = tested on: T-47D breast
TK-10 renal = tested on: TK-10 renal
U251 glioblastoma = tested on: U251 glioblastoma
UACC-257 melanoma = tested on: UACC-257 melanoma
UACC-62 melanoma = tested on: UACC-62 melanoma
UO-31 renal = tested on: UO-31 renal

For NC(N)=Nc1ccc(-n2nc(C(F)(F)F)cc2-c2ccc3c(ccc4ccccc43)c2)cc1, the GI50 ([…]-0 renal) was 1620 nM, the TGI (786-0 renal) was 2980 nM and the GI50 (A498 renal) was 1550 nM. The TGI (A498 renal) was 2900 nM, the GI50 (A549 NSCLC) was 1740 nM and the TGI (A549 NSCLC) was 3.13 µM. The GI50 (ACHN renal) was 1840 nM, the TGI (ACHN renal) was 3.25 µM and the GI50 (BT-549 breast) was 1750 nM. For the same compound, the TGI (BT-549 breast) was 3.14 µM, the GI50 (CAKI-1 renal) was 1740 nM and the TGI (CAKI-1 renal) was 3.14 µM. The GI50 (CCRF-CEM leukemia) was 1110 nM, the TGI (CCRF-CEM leukemia) was 2310 nM and the GI50 (COLO 205 colon) was 1300 nM. It also gave a TGI (COLO 205 colon) of 2580 nM, a GI50 (DU-145 prostate) of 1850 nM and a TGI (DU-145 prostate) of 3.27 µM. It also gave a GI50 (EKVX NSCLC) of 1720 nM, a TGI (EKVX NSCLC) of 3.1 µM and a GI50 (HCC-2998 colon) of 736 nM. For the same compound, the TGI (HCC-2998 colon) was 2030 nM, the GI50 (HCT-15 colon) was 1530 nM and the TGI (HCT-15 colon) was 2890 nM. For the same compound, the GI50 (HL-60(TB) leukemia) was 838 nM, the TGI (HL-60(TB) leukemia) was 2070 nM and the GI50 (HOP-62 NSCLC) was 1770 nM. The TGI (HOP-62 NSCLC) was 3.17 µM, the GI50 (HOP-92 NSCLC) was 1390 nM and the TGI (HOP-92 NSCLC) was 2700 nM. For the same compound, the GI50 (HS 578T breast) was 1770 nM, the TGI (HS 578T breast) was 3.16 µM and the GI50 (HT29 colon) was 1740 nM. For the same compound, the TGI (HT29 colon) was 3.14 µM, the GI50 (IGROV1 ovarian) was 1820 nM and the TGI (IGROV1 ovarian) was 3.23 µM. It also gave a GI50 (K-562 leukemia) of 1570 nM, a TGI (K-562 leukemia) of 2920 nM and a GI50 (KM12 colon) of 1470 nM. For the same compound, the TGI (KM12 colon) was 2800 nM, the GI50 (LOX IMVI melanoma) was 1530 nM and the TGI (LOX IMVI melanoma) was 2870 nM. For the same compound, the GI50 (M14 melanoma) was 1740 nM, the TGI (M14 melanoma) was 3.14 µM and the GI50 (MALME-3M melanoma) was 1650 nM. It also gave a TGI (MALME-3M melanoma) of 3.02 µM, a GI50 (MCF7 breast) of 1250 nM and a TGI (MCF7 breast) of 2520 nM. For the same compound, the GI50 (MDA-MB-231 breast) was 1570 nM, the TGI (MDA-MB-231 breast) was 2930 nM and the GI50 (MDA-MB-435 melanoma) was 1850 nM. For the same compound, the TGI (MDA-MB-435 melanoma) was 3.26 µM, the GI50 (MDA-MB-468 breast) was 2020 nM and the TGI (MDA-MB-468 breast) was 3.45 µM. It also gave a GI50 (MOLT-4 leukemia) of 1440 nM, a TGI (MOLT-4 leukemia) of 2750 nM and a GI50 (NCI-H226 lung) of 1640 nM. For the same compound, the TGI (NCI-H226 lung) was 3.01 µM, the GI50 (NCI-H23 lung) was 1630 nM and the TGI (NCI-H23 lung) was 2990 nM. The GI50 (NCI-H322M lung) was 1650 nM, the TGI (NCI-H322M lung) was 3.02 µM and the GI50 (NCI-H460 NSCLC) was 1690 nM. The TGI (NCI-H460 NSCLC) was 3.07 µM, the GI50 (NCI-H522 lung) was 1780 nM and the TGI (NCI-H522 lung) was 3.18 µM. It also gave a GI50 (NCI/ADR-RES ovarian) of 2380 nM, a TGI (NCI/ADR-RES ovarian) of 4.83 µM and a GI50 (OVCAR-3 ovarian) of 1840 nM. For the same compound, the TGI (OVCAR-3 ovarian) was 3.26 µM, the GI50 (OVCAR-4 ovarian) was 1610 nM and the TGI (OVCAR-4 ovarian) was 2970 nM. It also gave a GI50 (OVCAR-5 ovarian) of 1880 nM, a TGI (OVCAR-5 ovarian) of 3.29 µM and a GI50 (OVCAR-8 ovarian) of 1830 nM. For the same compound, the TGI (OVCAR-8 ovarian) was 3.23 µM, the GI50 (PC-3 prostate) was 1720 nM and the TGI (PC-3 prostate) was 3.11 µM. For the same compound, the GI50 (RPMI-8226 leukemia) was 1310 nM, the TGI (RPMI-8226 leukemia) was 2590 nM and the GI50 (RXF 393 renal) was 1590 nM. For the same compound, the TGI (RXF 393 renal) was 2930 nM, the GI50 (SF-268 CNS) was 1830 nM and the TGI (SF-268 CNS) was 3.24 µM. For the same compound, the GI50 (SF-295 CNS) was 1840 nM, the TGI (SF-295 CNS) was 3.25 µM and the GI50 (SF-539 CNS) was 1860 nM. For the same compound, the TGI (SF-539 CNS) was 3.27 µM, the GI50 (SK-MEL-28 melanoma) was 1780 nM and the TGI (SK-MEL-28 melanoma) was 3.17 µM. It also gave a GI50 (SK-MEL-5 melanoma) of 1830 nM, a TGI (SK-MEL-5 melanoma) of 3.22 µM and a GI50 (SK-OV-3 ovarian) of 1620 nM. The TGI (SK-OV-3 ovarian) was 2980 nM, the GI50 (SN12C renal) was 1810 nM and the TGI (SN12C renal) was 3.22 µM. The GI50 (SNB-19 CNS) was 1770 nM, the TGI (SNB-19 CNS) was 3.17 µM and the GI50 (SNB-75 CNS) was 1760 nM. The TGI (SNB-75 CNS) was 3.15 µM, the GI50 (SR leukemia) was 765 nM and the TGI (SR leukemia) was 2020 nM. It also gave a GI50 (SW-620 colon) of 1820 nM, a TGI (SW-620 colon) of 3.23 µM and a GI50 (T-47D breast) of 1760 nM. For the same compound, the TGI (T-47D breast) was 3.15 µM, the GI50 (TK-10 renal) was 1810 nM and the TGI (TK-10 renal) was 3.21 µM. For the same compound, the GI50 (U251 glioblastoma) was 1840 nM, the TGI (U251 glioblastoma) was 3.27 µM and the GI50 (UACC-257 melanoma) was 1950 nM. It also gave a TGI (UACC-257 melanoma) of 3.37 µM, a GI50 (UACC-62 melanoma) of 1740 nM and a TGI (UACC-62 melanoma) of 3.13 µM. It also gave a GI50 (UO-31 renal) of 1780 nM and a TGI (UO-31 renal) of 3.2 µM.

Source: PubChem BioAssay (NCI)
